In patent publication US11712438B2, “Phenyl derivatives as PGE2 receptor modulators” (IDORSIA PHARMACEUTICALS LTD, priority 2017, dated 2023):

Key:
[1] = target: PTGER2 (EP2) (Homo sapiens, UniProt P43116); test: cell-based
Excerpt: The assay is using the PathHunter™ HEK 293 PTGER2 and PTGER4 b-arrestin cell lines from DiscoverX. The system is based on the Enzyme Fragment Complementation Technology. Two complementing fragments of the b-galactosidase enzyme are expressed within stably transfected cells. The larger portion of b-gal, termed EA for Enzyme Acceptor, is fused to the C-terminus of b-arrestin 2. The smaller fragment, termed ProLink™ tag, is fused to PTGER2 (EP2) or PTRGER4 (EP4) at the C-terminus. Upon activation, b-arrestin is recruited which forces the interaction of ProLink and EA, allowing complementation of the two fragments of b-gal and the formation of a functional enzyme which is capable of hydrolysing the substrate and generating a chemiluminescent signal.
The HEK 293 PTGER2 b-arrestin cells (DiscoverX 93-021-4C1) are detached from culture dishes with a cell dissociation buffer (Invitrogen, 13151-014), and collected in growing medium (GM: DMEM+Glutamax-I (Invitrogen 32430)/10% FCS, 1% Penicilin/streptomycin). 5000 cells per well of a 384 well plate (white with white bottom Greiner 781080) are seeded in 20 ul per well of GM. Plate is incubated at 37° C., 5% CO2 for 24 hours.
Stock solutions of test compounds are made at a concentration of 10 mM in DMSO, and serially diluted in DMSO to concentrations required for inhibition dose response curves (tested concentration range 10 μM-2 nM or 1 μM-0.2 nM).
PGE2 (Cayman 14010, stock solution: 10 mM in DMSO) is used as agonist at 5 μM final concentration, corresponding to EC80.
Five microliters of diluted compounds are transferred into the assay plate. Plate is pre-incubated 15 minutes at 37° C. Then five microliters of PGE2 (final conc. 5 μM) are transferred into the assay plate. Plate is incubated 120 minutes at 37° C.
Twelve μl of reagent are transferred to the assay plate and incubate for 1 hour at room temperature in the dark. Luminescence counts are read on a BMG Fluostar Optima reader according to manufacturer's instructions.
For each compound concentration calculate of the percentage of activity compared to DMSO control value as average±STDEV. (each concentration is measured in duplicate)
When compounds were measured multiple times, mean values are given.

[2] = target: PTRGER4 (EP4) (Homo sapiens, UniProt P35408); test: cell-based;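 note: assay plate preincubated 15 min at 37 °C, after which PGE2 was added at 20 nM final and incubation continued 120 min at 37 °C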
Sequence of PTRGER4 (EP4) (P35408 whole entry): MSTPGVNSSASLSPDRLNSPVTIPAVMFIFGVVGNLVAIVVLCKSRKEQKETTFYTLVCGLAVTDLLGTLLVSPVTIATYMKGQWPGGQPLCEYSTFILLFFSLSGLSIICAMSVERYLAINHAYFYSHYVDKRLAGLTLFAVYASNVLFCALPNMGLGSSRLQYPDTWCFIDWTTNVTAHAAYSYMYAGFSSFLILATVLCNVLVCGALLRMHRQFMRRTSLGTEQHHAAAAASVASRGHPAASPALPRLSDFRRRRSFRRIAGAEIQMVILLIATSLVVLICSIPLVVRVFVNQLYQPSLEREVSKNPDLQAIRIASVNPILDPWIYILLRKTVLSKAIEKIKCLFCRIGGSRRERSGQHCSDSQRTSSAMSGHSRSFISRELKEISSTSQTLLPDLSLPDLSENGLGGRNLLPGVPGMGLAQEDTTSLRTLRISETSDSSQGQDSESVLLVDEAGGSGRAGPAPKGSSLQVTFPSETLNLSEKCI

Sequence of PTGER2 (EP2) (P43116 whole entry): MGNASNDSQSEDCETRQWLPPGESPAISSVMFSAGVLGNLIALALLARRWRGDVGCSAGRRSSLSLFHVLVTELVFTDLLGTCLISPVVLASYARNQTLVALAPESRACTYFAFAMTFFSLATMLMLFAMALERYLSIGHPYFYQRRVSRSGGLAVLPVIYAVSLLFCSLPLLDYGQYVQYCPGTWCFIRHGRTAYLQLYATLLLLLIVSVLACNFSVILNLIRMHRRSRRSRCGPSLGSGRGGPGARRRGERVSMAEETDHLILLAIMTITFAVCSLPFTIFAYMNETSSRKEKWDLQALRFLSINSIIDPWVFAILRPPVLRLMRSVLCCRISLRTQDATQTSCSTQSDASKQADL

| SMILES | IC50 [1] | IC50 [2] |
| --- | --- | --- |
| CCOc1cc(-c2cc(NCCc3c(F)cc(Br)cc3F)ncn2)ccc1-c1noc(=S)[nH]1 [Example 290, 3-(4-{6-[2-(4-Bromo-2,6-difluoro-phenyl)-ethylamino]-pyrimidin-4-yl}-2-ethoxy-phenyl)-[1,2,4]oxadiazole-5(4H)-thione] | 48 nM | 28 nM |
| CCOc1cc(-c2cc(NCCc3c(F)cccc3OC)ncn2)sc1C(=O)O [Example 177, 3-Ethoxy-5-{6-[2-(2-fluoro-6-methoxy-phenyl)-ethylamino]-pyrimidin-4-yl}-thiophene-2-carboxylic acid] | 126 nM | 343 nM |
| O=c1c(O)c(-c2ccc(-c3cc(NCCc4c(F)cc(Br)cc4F)ncn3)cc2)c1=O [Example 243, 3-(4-{6-[2-(4-Bromo-2,6-difluoro-phenyl)-ethylamino]-pyrimidin-4-yl}-phenyl)-4-hydroxy-cyclobut-3-ene-1,2-dione] | 41 nM | 61 nM |
| Cc1cc(-c2cc(NCCc3c(F)cc(Br)cc3F)ncn2)cc(C)c1CC(=O)O [Example 255, (4-{6-[2-(4-Bromo-2,6-difluoro-phenyl)-ethylamino]-pyrimidin-4-yl}-2,6-dimethyl-phenyl)-acetic acid] | 344 nM | 283 nM |
| O=C(O)c1coc2cc(-c3cc(NCCc4c(F)cc(Br)cc4F)ncn3)ccc12 [Example 272, 6-{6-[2-(4-Bromo-2,6-difluoro-phenyl)-ethylamino]-pyrimidin-4-yl}-benzofuran-3-carboxylic acid] | 174 nM | 426 nM |
| COC(=O)c1ccc(-c2cc(NCCc3c(F)cc(Br)cc3F)ncn2)cc1SC [Example 246, 4-{6-[2-(4-Bromo-2,6-difluoro-phenyl)-ethylamino]-pyrimidin-4-yl}-2-methylsulfanyl-benzoic acid methyl ester] | 479 nM | 277 nM |
| COc1cc(C)c(C)cc1CCNc1cc(-c2ccc(C(=O)O)c(OC3CCC3)c2)ncn1 [Example 188, 2-Cyclobutoxy-4-{6-[2-(2-methoxy-4,5-dimethyl-phenyl)-ethylamino]-pyrimidin-4-yl}-benzoic acid] | 179 nM | 117 nM |
| CCOC(=O)CCc1sc(-c2cc(NCCc3c(F)cc(Br)cc3F)ncn2)cc1OCC [Example 247, 3-(5-{6-[2-(4-Bromo-2,6-difluoro-phenyl)-ethylamino]-pyrimidin-4-yl}-3-ethoxy-thiophen-2yl)-propionic acid ethyl ester] | 799 nM | 278 nM |
| CCOc1cc(C(F)(F)F)ccc1CCNc1cc(-c2ccc(CC(=O)O)c(OCC)c2)ncn1 [Example 214, (2-Ethoxy-4-{6-[2-(2-ethoxy-4-trifluoromethyl-phenyl)-ethylamino]-pyrimidin-4-yl}-phenyl)-acetic acid] | 184 nM | 62 nM |
| CCOc1cc(-c2cc(NCCc3c(F)cc(Br)cc3F)ncn2)ccc1NCC(=O)O [Example 182, (4-{6-[2-(4-Bromo-2,6-difluoro-phenyl)-ethylamino]-pyrimidin-4-yl}-2-ethoxy-phenylamino)-acetic acid] | 163 nM | 208 nM |
| CCCn1cc(-c2cc(NCCc3c(F)cc(Br)cc3F)ncn2)cc1C(=O)O [Example 270, 4-{6-[2-(4-Bromo-2,6-difluoro-phenyl)-ethylamino]-pyrimidin-4-yl}-1-propyl-1H-pyrrole-2-carboxylic acid] | 316 nM | 700 nM |
| OCCOc1ccc(-c2cc(NCCc3c(F)cc(Br)cc3F)ncn2)cc1 [Example 311, 2-(4-{6-[2-(4-Bromo-2,6-difluoro-phenyl)-ethylamino]-pyrimidin-4-yl}-phenoxy)-ethanol] | 216 nM | 776 nM |
| Fc1cc(Br)cc(F)c1CCNc1cc(-c2ccc3[nH]ccc3c2)ncn1 [Example 258, [2-(4-Bromo-2,6-difluoro-phenyl)-ethyl]-[6-(1H-indol-5yl)-pyrimidin-4-yl]amine] | 77 nM | 174 nM |
| CCn1cc(-c2cc(NCCc3c(F)cc(Br)cc3F)ncn2)cc1C(=O)O [Example 269, 4-{6-[2-(4-Bromo-2,6-difluoro-phenyl)-ethylamino]-pyrimidin-4-yl}-1-ethyl-1H-pyrrole-2-carboxylic acid] | 258 nM | 768 nM |
| Cc1cc(-c2cc(NCCc3c(F)cc(Br)cc3F)ncn2)cc(F)c1CC(=O)O [Example 256, (4-{6-[2-(4-Bromo-2,6-difluoro-phenyl)-ethylamino]-pyrimidin-4-yl}-2-fluoro-6-methyl-phenyl)-acetic acid] | 574 nM | 584 nM |
| COC(=O)Nc1ccc(-c2cc(NCCc3c(F)cc(Br)cc3F)ncn2)cc1 [Example 313, (4-{6-[2-(4-Bromo-2,6-difluoro-phenyl)-ethylamino]-pyrimidin-4-yl}-phenyl)-carbamic acid methyl ester] | 143 nM | 333 nM |
| CCc1cc(-c2cc(NCCc3c(F)cc(Br)cc3F)ncn2)cc(C)c1CC(=O)O [Example 257, (4-{6-[2-(4-Bromo-2,6-difluoro-phenyl)-ethylamino]-pyrimidin-4-yl}-2-ethyl-6-methyl-phenyl)-acetic acid] | 212 nM | 239 nM |
| CSc1cc(-c2cc(NCCc3ccc(C(F)(F)F)cc3OC(F)F)ncn2)ccc1C(=O)O [Example 218, 4-{6-[2-(2-Difluoromethoxy-4-trifluoromethyl-phenyl)-ethylamino]-pyrimidin-4-yl}-2-methylsulfanyl-benzoic acid] | 690 nM | 917 nM |
| CCOc1cc(-c2cc(NCCc3c(F)cc(Br)cc3F)ncn2)ccc1C(=O)NC [Example 298, 4-{6-[2-(4-Bromo-2,6-difluoro-phenyl)-ethylamino]-pyrimidin-4-yl}-2-ethoxy-N-methyl-benzamide] | 128 nM | 301 nM |
| CCOc1cc(-c2cc(NCCc3c(F)cc(Br)cc3F)ncn2)ccc1C1(C(=O)O)CC1 [Example 171, 1-(4-{6-[2-(4-Bromo-2,6-difluoro-phenyl)-ethylamino]-pyrimidin-4-yl}-2-ethoxy-phenyl)-cyclopropanecarboxylic acid] | 680 nM | 582 nM |
| CCOc1c(C(=O)O)ccc(-c2cc(NCCc3c(F)cc(Br)cc3F)ncn2)c1F [Example 274, 4-{6-[2-(4-Bromo-2,6-difluoro-phenyl)-ethylamino]-pyrimidin-4-yl}-2-ethoxy-3-fluoro-benzoic acid] | 160 nM | 646 nM |
| O=CNc1ccc(-c2cc(NCCc3c(F)cc(Br)cc3F)ncn2)cc1 [Example 238, N-(4-{6-[2-(4-Bromo-2,6-difluoro-phenyl)-ethylamino]-pyrimidin-4-yl}-phenyl)-formamide] | 251 nM | 438 nM |

Next, values leading:

| IC50 [1] | IC50 [2] | SMILES |
| --- | --- | --- |
| 156 nM | 164 nM | CCCc1cc(-c2cc(NCCc3c(F)cc(Br)cc3F)ncn2)ccc1C(=O)NCC(C)(C)O [Example 308, 4-{6-[2-(4-Bromo-2,6-difluoro-phenyl)-ethylamino]-pyrimidin-4-yl}-N-(2-hydroxy-2-methyl-propyl)-2-propyl-benzamide] |
| 315 nM | 372 nM | COc1cc(C(F)(F)F)ccc1CCNc1cc(-c2ccc(C(=O)O)c(SC)c2)ncn1 [Example 206, 4-{6-[2-(2-Methoxy-4-trifluoromethyl-phenyl)-ethylamino]-pyrimidin-4-yl}-2-methylsulfanyl-benzoic acid] |
| 322 nM | 145 nM | COc1cc(C)c(C)cc1CCNc1cc(-c2ccc(CC(=O)O)c(SC)c2)ncn1 [Example 191, (4-{6-[2-(2-Methoxy-4,5-dimethyl-phenyl)-ethylamino]-pyrimidin-4-yl}-2-methylsulfanyl-phenyl)-acetic acid] |
| 140 nM | 315 nM | CCOc1cc(-c2cc(NCCc3cc(F)c(F)cc3OC)ncn2)sc1C(=O)O [Example 179, 5-{6-[2-(4,5-Difluoro-2-methoxy-phenyl)-ethylamino]-pyrimidin-4-yl}-3-ethoxy-thiophene-2-carboxylic acid] |
| 295 nM | 338 nM | CCCc1cc(-c2cc(NCCc3cc(C)c(C)cc3OC)ncn2)ccc1C(=O)O [Example 189] |
| 44 nM | 163 nM | CCCc1cc(-c2cc(NCCc3c(F)cc(Br)cc3F)ncn2)ccc1C(N)=O [Example 303, 4-{6-[2-(4-Bromo-2,6-difluoro-phenyl)-ethylamino]-pyrimidin-4-yl}-2-propyl-benzamide] |
| 433 nM | 699 nM | CCCOc1cc(-c2cc(NCCc3c(C)cc(C)cc3OC)ncn2)ccc1CC(=O)O [Example 204, (4-{6-[2-(2-Methoxy-4,6-dimethyl-phenyl)-ethylamino]-pyrimidin-4-yl}-2-propoxy-phenyl)-acetic acid] |
| 140 nM | 482 nM | CCCc1cc(-c2cc(NCCc3c(C)cc(C)cc3OC)ncn2)ccc1C(=O)O [Example 201, 4-{6-[2-(2-Methoxy-4,6-dimethyl-phenyl)-ethylamino]-pyrimidin-4-yl}-2-propyl-benzoic acid] |
| 662 nM | 152 nM | COc1cc(C(F)(F)F)cc(F)c1CCNc1cc(-c2ccc(C(=O)O)c(SC)c2)ncn1 [Example 230, 4-{6-[2-(2-Fluoro-6-methoxy-4-trifluoromethyl-phenyl)-ethylamino]-pyrimidin-4-yl}-2-methylsulfanyl-benzoic acid] |
| 110 nM | 467 nM | CCc1cc(-c2cc(NCCc3c(F)cc(Br)cc3F)ncn2)ccc1C(=O)O [Example 249, 4-{6-[2-(4-Bromo-2,6-difluoro-phenyl)-ethylamino]-pyrimidin-4-yl}-2-ethyl-benzoic acid] |
| 97 nM | 403 nM | CCCc1cc(-c2cc(NCCc3c(F)cc(Br)cc3F)ncn2)ccc1C(=O)NCCO [Example 306, 4-{6-[2-(4-Bromo-2,6-difluoro-phenyl)-ethylamino]-pyrimidin-4-yl}-N-(2-hydroxy-ethyl)-2-propyl-benzamide] |
| 486 nM | 181 nM | CCOc1cc(-c2cc(NCCc3cc(C)c(C)cc3OC)ncn2)ccc1CC(=O)O [Example 190, (2-Ethoxy-4-{6-[2-(2-methoxy-4,5-dimethyl-phenyl)-ethylamino]-pyrimidin-4-yl}-phenyl)-acetic acid] |
